Assay results from the NIST ThermoML archive (doi:10.1016/j.jct.2011.04.013).
Numbers after ± are expanded uncertainties.

Tests used:
[1] = Molar enthalpy of transition or fusion; details: Crystal; DSC
[2] = Solid-liquid equilibrium temperature; details: 101.33 kPa; Crystal; DTA
[3] = molar heat capacity at constant pressure; details: 462.02 K; 101.33 kPa; Crystal; Large sample (1 g) DSC

Molar enthalpy of transition or fusion [1]	Solid-liquid equilibrium temperature [2]	molar heat capacity at constant pressure [3]	SMILES
6.17 ± 0.174 kcal/mol	387.52 ± 0.2 K		CCOc1ccc2c(C)cc(=O)oc2c1 [7-ethoxy-4-methyl-2H-chromen-2-one]
7.96 ± 0.172 kcal/mol	436.13 ± 0.22 K		COc1ccc2oc(=O)cc(C)c2c1 [6-methoxy-4-methylcoumarin]
7.51 ± 0.165 kcal/mol	462.02 ± 0.24 K	8.971 ± 0.18 J/K/mol	Cc1cc(=O)oc2cc(O)ccc12 [7-hydroxy-4-methyl-2H-chromen-2-one]
